Here are results for four compounds from patent US20070004689A1, “Antiangiogenic agents” (priority 2004, published 2007).

Molecules are shown by their SMILES.

The data set in a line: Rat pharmacokinetics, cassette dosing, oral. To be noted: oral 5 mg/kg, plasma. The format is in vivo. The method, then:
Pharmokinetics (PK): PO Cmax is the maximal concentration of drug achieved after oral administration in rats and AUC is the area under the curve. These parameters are an indication of oral bioavailability. PK parameters were determined using a cassette-dosing approach. A group of new chemical entities (NCEs) (usually 3-6 molecules) was dissolved in DMSO or ethanol and diluted with a solution of a dextrin polymer to the final working concentration (usually 0.2-2 mg/mL). Groups of three rats with in-dwelling catheters were dosed either orally (5 mg/kg) or i.v. (1 mg/kg) with the cassette of NCEs. Blood was collected at nine time points from 2 minutes to 24 hours. Plasma was separated and aliquots of the replicate samples were pooled for analysis. Plasma proteins were precipitated by addition of organic solvent (most often methanol or acetonitrile). For some analogs, an acid modifier was added to the precipitation mixture to enhance recovery. Precipitated proteins were removed by centrifugation and the supernatant was injected onto a C18 reversed phase column attached to an LC-MS-MS mass spectrometer. Analytes were partly resolved by a rapid (5 minute) gradient of organic modifier. Analytes were measured as either positive or negative ions, depending on ionization characteristics, in the SRM (or MS-MS) mode. Quantification was carried out by correlation of peak heights or areas for each analyte to a set of concentration standards of the same analytes diluted into blank plasma. Concentration vs. time data was analyzed by WinNonLin.

In the case of `COc1cc2c(cc1C(N)=O)CC[C@@H]1[C@@H]2CC[C@]2(C)C=CC[C@@H]12` [Compound 63, 3-carboxamide-2-methoxy-1,3,5(10)16-estratetraene], the Cmax (as a rule, the peak of the concentration-time curve) turned out to be 127 nM and the Rat PO AUC (nM) is 0.961 µM·h.

In turn, `COc1cc2c(cc1C(N)=O)CC[C@@H]1[C@@H]2CC[C@]2(C)CCC[C@@H]12` [Compound 57, (2-Methoxyestra-1,3,5(10)-trien-3-yl)-3-carboxamide] yielded a Cmax of 130 nM and a Rat PO AUC (nM) of 0.624 µM·h.

As for `C=C1CC[C@H]2[C@@H]3CCc4cc(C(N)=O)c(OC)cc4[C@H]3CC[C@]12C` [Compound 60, 2-Methoxy-17-methyleneestra-1,3,5(10)-triene-3-carboxamide], under “rat”, the AUC (as a rule, the area under the concentration-time curve, a measure of exposure) came to 1.4 µM·h and the Cmax was determined as 185 nM.

With `COc1cc2c(cc1C(N)=O)CC[C@@H]1[C@@H]2CC[C@]2(C)C(=O)CC[C@@H]12` [Compound 54, 2-methoxy-17-oxoestra-1,3,5(10)-triene-3-carboxamide], for the setting “rat”, the AUC was determined as 0.185 µM·h and the Cmax worked out at 47 nM.
